Where two headings read alike, the source gives them in different places.
What was measured:
Assay in all cases: cell-based
[1] = target: T1, CAT1 (cationic amino acid transporter 1, CAT1/SLC7A1) (Homo sapiens, UniProt P30825); set-up: species or system HEK-CAT1 (HEK293 stably transfected); Inhibition of net CAT1-mediated [3H]-L-arginine (100 uM) uptake, 5 min, scintillation counting, vector control subtracted; settings: HEK293, L-arginine 100 uM as substrate; for inhibition at 20 µM: read-out: % Inhibition of L-arginine uptake at 20 µM; for inhibition at 200 µM: read-out: % Inhibition of L-arginine uptake at 200 µM
T1 construct: full-length human transporter stably transfected in HEK cells (HEK-CAT1); net uptake against HEK-VC vector control cells
Method: (§1) Uptake and inhibition assays using HEK-CAT1 and HEK-VC cells and L-arginine, L-homoarginine, and ADMA as substrates were performed using the protocol described (Strobel et al. [2012]; Chafai et al. [2017]). Briefly, after incubation, the supernatant was replaced with transport buffer containing [^3H]- L-arginine for 5 min and 2.5 min for medium containing [^3H]-L-homoarginine or [^3H]-ADMA with or without the test compound. The reference drugs were screened at concentrations of 20 µM (Figs. 1A, 2A, and 3A) and 200 µM (Figs. 1B, 2B, and 3B). […] The net uptake was determined by subtracting the total amount taken up by control cells from the amount taken up by CAT1-expressing cells, which was expressed as a percentage of the amount taken up by the control. To determine the inhibitory effects of the drugs on CAT1-mediated transport of L-arginine, L-homoarginine, or ADMA, the control was measured in the absence of the potential inhibitor. The value for the percent inhibition was calculated as: Inhibition (%) = 100 – (V/V0 ^* 100), where V and V0 are the net uptake rates (uptake into HEK-CAT1 cells—uptake into HEK-VC cells) with and without test drugs, respectively. […] Each bar represents the effect of one compound on CAT1-mediated L-arginine (100 μM) uptake as percent inhibition. Data were obtained from at least two independent experiments performed in triplicate (n = 6–9) and each test data from the independent experiment were normalized to the respective control data to get the value of percent inhibition. Negative inhibition values indicate stimulated CAT1-mediated uptake. Data were analyzed using one-way ANOVA and Dunnett’s multiple comparison test with p < 0.05. Bars showing a statistically significant inhibition or transport stimulation are shaded in black

[2] = target: T1, CAT1 (cationic amino acid transporter 1, CAT1/SLC7A1); set-up: species or system HEK-CAT1 (HEK293 stably transfected); Inhibition of net CAT1-mediated [3H]-L-homoarginine (1 uM) uptake, 2.5 min, scintillation counting, vector control subtracted; settings: HEK293, L-homoarginine 1 uM as substrate; for inhibition at 20 µM: read-out: % Inhibition of L-homoarginine uptake at 20 µM; for inhibition at 200 µM: read-out: % Inhibition of L-homoarginine uptake at 200 µM
Method: as §1, with “L-homoarginine (1” for “L-arginine (100”

[3] = target: T1, CAT1 (cationic amino acid transporter 1, CAT1/SLC7A1); set-up: species or system HEK-CAT1 (HEK293 stably transfected); Inhibition of net CAT1-mediated [3H]-ADMA (1 uM) uptake, 2.5 min, scintillation counting, vector control subtracted; settings: HEK293, ADMA 1 uM as substrate; for inhibition at 20 µM: read-out: % Inhibition of ADMA uptake at 20 µM; for inhibition at 200 µM: read-out: % Inhibition of ADMA uptake at 200 µM
Method: as §1, with “ADMA (1” for “L-arginine (100”

T1 sequence (P30825 whole entry): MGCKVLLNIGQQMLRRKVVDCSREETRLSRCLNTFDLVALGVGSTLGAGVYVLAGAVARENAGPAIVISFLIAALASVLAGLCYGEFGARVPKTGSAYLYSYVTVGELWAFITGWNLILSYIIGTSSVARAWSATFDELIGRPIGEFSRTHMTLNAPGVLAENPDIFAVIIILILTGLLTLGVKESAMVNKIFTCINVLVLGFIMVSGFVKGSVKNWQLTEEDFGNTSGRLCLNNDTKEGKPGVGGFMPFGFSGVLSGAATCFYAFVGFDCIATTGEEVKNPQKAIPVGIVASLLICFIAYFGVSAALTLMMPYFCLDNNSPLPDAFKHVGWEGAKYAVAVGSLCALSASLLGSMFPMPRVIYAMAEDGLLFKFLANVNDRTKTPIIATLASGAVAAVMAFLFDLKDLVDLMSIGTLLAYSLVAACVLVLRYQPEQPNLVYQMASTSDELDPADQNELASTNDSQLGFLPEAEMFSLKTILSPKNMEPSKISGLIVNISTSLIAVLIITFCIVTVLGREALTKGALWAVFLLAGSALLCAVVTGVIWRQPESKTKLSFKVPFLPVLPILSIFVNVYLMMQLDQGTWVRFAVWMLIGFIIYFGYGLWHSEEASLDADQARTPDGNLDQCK

SMILES	inhibition at 20 µM [1]	inhibition at 200 µM [1]	inhibition at 20 µM [2]	inhibition at 200 µM [2]	inhibition at 20 µM [3]	inhibition at 200 µM [3]
Nc1ccn([C@@H]2CS[C@H](CO)O2)c(=O)n1 [Lamivudine]	27.4 ± 4.6%	-3.9 ± 4.6%	-3.4 ± 0.3%	-3.1 ± 1.4%	-5.3 ± 4%	22.9 ± 4.9%
CN/C(=N\CCSCc1nc[nH]c1C)NC#N [Cimetidine]	0.2 ± 7.2%	-65.4 ± 5.8%	21.9 ± 3%	-31.2 ± 1.3%	21.9 ± 3.1%	1.1 ± 2.5%
Cc1nnc2n1-c1ccc(Cl)cc1C(c1ccccc1)=NC2 [Alprazolam]	-3.9 ± 5.3%	8 ± 2.7%	-4.3 ± 5.2%	9.6 ± 1%	5.8 ± 3.8%	4.1 ± 9.5%
CN1CCOC(c2ccccc2)c2ccccc2C1 (centres unmarked) [Nefopam]	-17.2 ± 10.5%	-13.9 ± 5.1%	-8.3 ± 1.6%	-11.6 ± 3.2%	-3.2 ± 0.4%	32.6 ± 3.7%
Cc1nccn1CC1CCc2c(c3ccccc3n2C)C1=O (centres unmarked) [Ondansetron]	8.8 ± 7.9%	-5.7 ± 4.1%	-0.5 ± 5.9%	-8.3 ± 1.6%	-0.4 ± 5.9%	10.1 ± 2.3%
O=C(O[C@H]1C[C@H]2CC[C@@H](C1)[N+]21CCCC1)C(O)(c1ccccc1)c1ccccc1 [Trospium Chloride]	27.1 ± 2.1%	-23.8 ± 4.5%		-22.5 ± 2.3%		3 ± 9.1%
C[C@H](CS)C(=O)N1CCC[C@H]1C(=O)O [Captopril]	0.6 ± 4.7%	-15.1 ± 13.1%	0.1 ± 4.5%	-15.9 ± 3%	0.5 ± 2.1%	-19.6 ± 2.2%
CNCC[C@H](Oc1cccc2ccccc12)c1cccs1 [Duloxetine]	6.1 ± 7.4%	12.6 ± 2.6%	7.6 ± 6.5%	11.9 ± 3.1%	1.9 ± 5.4%	-14.2 ± 4.9%
Nc1nc(N)c2nc(-c3ccccc3)c(N)nc2n1 [Triamterene]	5.1 ± 8.8%	16.7 ± 1.6%	10.7 ± 2.1%	14.1 ± 0.5%	12.6 ± 3.2%	-10.6 ± 0.6%
CC(CN(C)C)CN1c2ccccc2CCc2ccccc21 (centres unmarked) [Trimipramine]	1.3 ± 2.4%	24.2 ± 4.5%	1.8 ± 4.5%	34.1 ± 3.8%	-26.1 ± 11.5%	-13.4 ± 3.7%
CC(=O)S[C@@H]1CC2=CC(=O)CC[C@]2(C)[C@H]2CC[C@@]3(C)[C@@H](CC[C@@]34CCC(=O)O4)[C@H]12 [Spironolactone]	-3.7 ± 5.3%	-4.8 ± 6.6%	-3.9 ± 5.2%	-11.5 ± 2.8%	3.2 ± 2.3%	-7.6 ± 2.1%
COCCc1ccc(OCC(O)CNC(C)C)cc1 (centres unmarked) [Metoprolol]	8.1 ± 6.7%	1.3 ± 3.8%	-21.4 ± 3.7%	0.3 ± 2.5%	-15.1 ± 7.1%	19.8 ± 4.1%
COC(=O)[C@H]1[C@H]2C[C@@H]3c4[nH]c5cc(OC)ccc5c4CCN3C[C@H]2C[C@@H](OC(=O)c2cc(OC)c(OC)c(OC)c2)[C@@H]1OC [Reserpine]	4.7 ± 7.9%	5.2 ± 2.9%	5 ± 7.5%	12.5 ± 1.7%	9 ± 2.6%	24.2 ± 0.6%
COc1ccc2c(c1)[C@]13CCCC[C@@H]1[C@H](C2)N(C)CC3 [Dextromethorphan]	7.3 ± 1.9%	2.9 ± 3.4%	-0.5 ± 5.8%	3.1 ± 0.7%	-3.3 ± 0.3%	6.2 ± 3.4%
C[C@@H](O)[C@H]1C(=O)N2C(C(=O)O)=C(S[C@@H]3CN[C@H](C(=O)Nc4cccc(C(=O)O)c4)C3)[C@H](C)[C@H]12 [Ertapenem]	-28.9 ± 4.8%	-15.8 ± 5.9%	-28.5 ± 4.8%	-15.1 ± 1.6%	-4.1 ± 6%	9.9 ± 3.1%
Cc1ccc(-c2ncc(Cl)cc2-c2ccc(S(C)(=O)=O)cc2)cn1 [Etorixocib]	0.7 ± 3.8%	-20.7 ± 2.9%	-5.4 ± 2.1%	31.8 ± 4.3%	-17.2 ± 13.5%	-22.8 ± 2.2%
c1ccc([C@H]2CN3CCSC3=N2)cc1 [Levamisole]	-18.4 ± 6.9%	-17.2 ± 5.1%	19.6 ± 11.8%	-15.9 ± 3.8%	18.9 ± 12.5%	-34.3 ± 2.4%
C[C@]12CCC(=O)C=C1CC[C@H]1[C@@H]3CC[C@](O)(C(=O)CO)[C@@]3(C)C[C@H](O)[C@@]12F [Fludrocortisone]	-29.4 ± 8.1%	-24.6 ± 1%	-27 ± 6.7%	-15.1 ± 0.6%	0.5 ± 3.9%	-43.9 ± 4.9%
COc1ccc(Cl)cc1C(=O)NCCc1ccc(S(=O)(=O)NC(=O)NC2CCCCC2)cc1 [Glibenclamide]	13.9 ± 3.4%	14 ± 9.6%	12.4 ± 2.8%	10.1 ± 3%	16.8 ± 2.5%	8.1 ± 2.1%
CCC(C)(C)C(=O)O[C@H]1C[C@@H](C)C=C2C=C[C@H](C)[C@H](CC[C@@H]3C[C@@H](O)CC(=O)O3)[C@H]21 [Simvastatin]	-4.1 ± 0.6%	-10.5 ± 3.3%			-18.1 ± 15%	-4.2 ± 3.5%
